Test results published in BindingDB's records for doi:10.1016/j.bioorg.2015.06.003 (Gwangju Institute of Science and Technology, 2015).

Target: T1, P2X purinoceptor 7 (Homo sapiens, UniProt Q99572)
T1 sequence (Q99572 whole entry): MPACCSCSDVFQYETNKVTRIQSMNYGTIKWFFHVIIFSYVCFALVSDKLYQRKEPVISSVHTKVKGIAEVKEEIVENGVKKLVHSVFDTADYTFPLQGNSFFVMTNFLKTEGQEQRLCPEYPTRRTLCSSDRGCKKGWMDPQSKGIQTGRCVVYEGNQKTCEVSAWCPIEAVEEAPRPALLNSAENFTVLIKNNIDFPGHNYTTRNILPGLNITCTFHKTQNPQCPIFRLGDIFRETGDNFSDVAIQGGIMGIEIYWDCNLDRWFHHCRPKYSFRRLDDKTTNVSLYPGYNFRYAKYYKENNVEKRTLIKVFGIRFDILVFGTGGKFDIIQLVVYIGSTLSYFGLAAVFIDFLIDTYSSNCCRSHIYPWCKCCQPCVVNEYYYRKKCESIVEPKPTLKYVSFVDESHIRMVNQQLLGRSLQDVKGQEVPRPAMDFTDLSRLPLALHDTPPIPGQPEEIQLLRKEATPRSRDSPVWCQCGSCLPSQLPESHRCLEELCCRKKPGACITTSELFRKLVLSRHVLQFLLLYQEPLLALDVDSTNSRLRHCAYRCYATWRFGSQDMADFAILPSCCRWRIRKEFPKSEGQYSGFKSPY
Assay: Ethidium Bromide Uptake Assay
Settings: pH 7.4
Protocol: hP2X7-expressing HEK 293 cells were re-suspended at 2.5 × 10^6 cells/mL in assay buffer composed of 10 mM HEPES, 5 mM N-methyl-D-glutamine, 5.6 mM KCl, 10 mM D-glucose, and 0.5 mM CaCl2 (pH 7.4) supplemented with either 280 mM sucrose or 140 mM NaCl, and an 80 µL aliquot was added to each well of a 96-well plate. To each compound were added and KN-62 as the positive control, followed by the hP2X7R agonist benzoyl ATP (BzATP). The plates were incubated at 37 °C for 2 h and the cellular accumulation of ethidium ion was determined by measuring fluorescence (excitation = 530 nm; emission = 590 nm).

Structure (SMILES) | IC50 [µM]
CC12CC3CC(C)(C1)CC(C(=O)NNc1ncnc4nc[nH]c14)(C3)C2 [3,5-Dimethyl-N'-(7H-purin-6-yl)adamantane-1-carbohydrazide (9n)] | 2.88
CC12CC3CC(C)(C1)CC(C(=O)NNc1ncnc4ccccc14)(C3)C2 [3,5-Dimethyl-N'-(quinazolin-4-yl)adamantane-1-carbohydrazide (9k)] | 5.5
CC12CC3CC(C)(C1)CC(C(=O)NNc1ccc4ccccc4n1)(C3)C2 [3,5-Dimethyl-N'-(quinolin-2-yl)adamantane-1-carbohydrazide (9i)] | 2.9
CC12CC3CC(C)(C1)CC(C(=O)NNc1cnc4ccccc4c1)(C3)C2 [3,5-Dimethyl-N'-(quinolin-3-yl)adamantane-1-carbohydrazide (9h)] | 3.7
CC12CC3CC(C)(C1)CC(C(=O)NNc1ccnc4ccccc14)(C3)C2 [3,5-Dimethyl-N'-(quinolin-4-yl)adamantane-1-carbohydrazide (9g)] | 0.726
CC12CC3CC(C)(C1)CC(C(=O)NNc1nc(Cl)nc4nc[nH]c14)(C3)C2 [N'-(2-Chloro-7H-purin-6-yl)-3,5-dimethyladamantane-1-carbohydrazide (9o)] | 0.176
CC12CC3CC(C)(C1)CC(C(=O)NNc1ccnc4c(Cl)cccc14)(C3)C2 [N'-(8-Chloroquinoline-4-yl)-3,5-dimethyladamantanehydrazide (9j)] | 1.1
